Assay results published in patent US12344610B2, “APOL1 inhibitors and methods of use” (Maze Therapeutics, Inc., priority 2022, dated 2025).
Like-named read-outs stand apart in the source and are kept apart here.

Tests used:
Assay type in all cases: cell-based
[1] = system: HEK293 clonal cell line overexpressing APOL1 G1; assay: APOL1 G1 HEK293 cell rescue assay (Example B3); conditions: geometric mean of at least 2 runs, † = single run, ¥ = concentration at 50% rescue estimated (no sigmoidal curve)
Method in brief: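 Rescue of cell death caused by APOL1 G1 overexpression was measured in a clonal HEK293 line. Compounds were tested in duplicate on one plate, and EC50s were geometric means across at least two runs on different days. Some values are estimated 50%-rescue concentrations where curve fitting failed.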

[2] = system: Trypanosoma brucei Lister 427 VSG221 with APOL1 G1 recombinant protein; assay: APOL1 G1 trypanosome cell rescue assay (Example B5); conditions: geometric mean of at least 2 assay runs, † = single assay run
Procedure: (§1) APOL1 G0/G1/G2 viability assay for measurement of cytotoxicity reversal by compound in trypanosomes (APOL1 G0/G1/G2 trypanosome cell rescue assay).
(§2) APOL1 protein expression and purification. The mature from of APOL1 proteins, residues 28-398, were expressed from a pET28a vector with an N-terminal His-tag and TEV cleavage site. Proteins were expressed in Escherichia coli BL21-CodonPlus (DE3)-RIPL cells. Liter cultures of terrific broth were grown at 37° C. until an OD600 of ˜0.8 was reached and then induced with isopropyl β-D-1-thiogalactopyranoside (IPTG; final concentration of 500 μM). Afterwards, cultures were grown for 3 hours at 37° C. For protein purification, cell pellets were resuspended in lysis buffer (50 mM Tris, pH 8.5, 5 mM EDTA, 0.5 mM DTT, 0.5 mM PMSF) supplemented with a cocktail of protease inhibitors. Cells were lysed by sonication, centrifuged, and the resulting pellet was collected. The homogenized pellet was resuspended in wash buffer (50 mM Tris, pH 8.5, 0.5 M NaCl, 5 mM EDTA, 0.5 mM DTT, 0.5 mM PMSF, protease inhibitor cocktail) and collected by centrifugation. Inclusion body dissolution was then conducted as previously reported (PNAS 112(9) (2015) 2894-2899; www.pnas.org/cgi/doi/10.1073/pnas.1421953112; herein incorporated by reference in its entirety). The solubilized APOL1 protein was applied to a nickel column (HisTrap, GE Life Sciences) preequilibrated in buffer A (50 mM Tris, pH 8.5, 0.15 M NaCl, 1% zwittergent 3-14, protease inhibitor cocktail). The resin was washed with buffer B (50 mM Tris, pH 8.5, 0.15 M NaCl, 0.1% DDM) and TEV cleavage was conducted on column overnight. Afterwards, the column was washed with buffer B, followed by His-washing buffer (50 mM Tris, pH 8.5, 0.15 M NaCl, 0.1% DDM, 10 mM imidazole). The protein was then removed from the resin using His-elution buffer (50 mM Tris, pH 8.5, 0.15 M NaCl, 0.1% DDM, 250 mM imidazole). The sample was further purified by size exclusion chromatography using a Superdex 200 Increase column (GE Life Sciences) in 50 mM Tris, pH 8.5, 0.15 M NaCl, and 0.1% DDM buffer. All APOL1 proteins (G0, G1, and G2) were generated at Viva Biotech (Shanghai) Ltd.
(§3) Modified HMI-9 media preparation (https://tryps.rockefeller.edu/trypsru2_culture_media_preparation.html; herein incorporated by reference in its entirety). Trypanosomes were cultured in modified HMI-9 media consisting of IMDM (ThermoFisher, 12440053), 10% heat-inactivated FBS (Gibco, 10082-147), 10% Serum Plus (Sigma-Aldrich, 14008C), 1×HMI-9 supplement stock, and 1% hypoxanthine stock. The 10×HMI-9 supplement stock was made by dissolving 280 mg bathocuproine disulfonic acid (Sigma-Aldrich, 146625), 1820 mg cysteine (add after bathocuproine) (Sigma-Aldrich, 30089), 1100 mg pyruvic acid (Sigma-Aldrich, 107360), 100 mg uracil (Sigma-Aldrich, U0750), 100 mg cytosine (Sigma-Aldrich, C3506) and 140 μL 2-mercaptoethanol (Sigma-Aldrich, M3148) in 1000 mL of water. The resulting solution was aliquoted and stored at −20° C. The hypoxanthine stock was made by dissolving 4 g of NaOH into 1000 mL of water. Afterwards, 13.6 g hypoxanthine (Sigma-Aldrich, H9377) was added to this mixture. The resulting solution was aliquoted and stored at −20° C.
(§4) Assay Setup. Trypanosoma brucei Lister 427 VSG221 (ATCC, PRA-382) cells were cultured in modified HMI-9 media. All experiments were performed in 384-well, white, solid bottom, tissue culture treated plates (Greiner, 781080). Assay ready plates were generated with duplicate 11-point compound dilution series that consisted of 2-fold stepwise dilutions (0.4% DMSO final). To each well, was added 20 μL of 2 μg/mL of APOL1 G0, G1, or G2 recombinant protein in modified HMI-9 media using a MultiDrop Combi (final APOL1 protein concentration=[…]). Trypanosomes were counted using a hemacytometer and diluted in modified HMI-9 media to a concentration of 1.25×10^4 cell/mL. […]

[3] = system: Trypanosoma brucei Lister 427 VSG221 with APOL1 G2 recombinant protein; assay: APOL1 G2 trypanosome cell rescue assay (Example B5); conditions: geometric mean of at least 2 assay runs, † = single assay run
Procedure: as §1, §2, §3, §4

[4] = system: Trypanosoma brucei Lister 427 VSG221 with APOL1 G0 recombinant protein; assay: APOL1 G0 trypanosome cell rescue assay (Example B5); conditions: geometric mean of at least 2 assay runs, † = single assay run
Procedure: as §1, §2, §3, §4

[5] = system: HEK293 cells overexpressing APOL1 G2; assay: APOL1 G2 HEK293 cell rescue assay (reversal of cell death caused by overexpression of APOL1); conditions: geometric mean of at least 2 assay runs, † = single assay run
Method in brief: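 Each compound tested in duplicate wells on one plate per run, with values usually the geometric mean across at least two runs on different days, occasionally from one run only. Read-out: concentration giving half-maximal rescue of APOL1 G2 overexpression-induced death of HEK293 cells.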

APOL1 G2 = target: T1, APOL1 G2 (Homo sapiens, UniProt O14791, DEL388-389); assay: APOL1-mediated calcium transport (calcium influx) assay, HEK T-REx/GCaMP6f/APOL1 G2 K6.3 cells, FLIPR TETRA; conditions: prevention of calcium influx; geometric mean of at least 2 assay runs; † = average of a technical replicate from a single assay run
T1 construct: expressed in transfected cells; host or cells: HEK293 T-REx clonal line stably expressing GCaMP6f (HEK T-REx/GCaMP6f/APOL1 G2 K6.3), doxycycline induced
T1 sequence (O14791 with tags, fused parts or gaps DEL388-389): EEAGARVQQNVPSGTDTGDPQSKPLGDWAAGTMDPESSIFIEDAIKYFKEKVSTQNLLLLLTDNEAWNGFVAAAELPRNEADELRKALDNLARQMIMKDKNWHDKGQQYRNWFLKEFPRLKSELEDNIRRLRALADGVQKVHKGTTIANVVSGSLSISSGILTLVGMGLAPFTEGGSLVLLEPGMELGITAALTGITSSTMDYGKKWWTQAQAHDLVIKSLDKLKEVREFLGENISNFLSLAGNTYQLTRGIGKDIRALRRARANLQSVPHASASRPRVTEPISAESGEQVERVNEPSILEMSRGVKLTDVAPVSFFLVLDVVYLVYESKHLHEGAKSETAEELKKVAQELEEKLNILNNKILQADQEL
Method in brief: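 A HEK293 T-REx clone stably expressing GCaMP6f had APOL1 G2 induced with doxycycline (20 ng/mL solution added) for 6 h. Cells were then washed into Ca2+-free Tyrode's buffer (pH 7.4) and preincubated with compounds (duplicate 8-point) for 10 min at room temperature. Ca2+ injection to 5 mM final produced FLIPR GCaMP fluorescence, giving AC50 for influx inhibition (geometric mean, ≥2 runs).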

[6] = Homo sapiens, HEK293, HEK293 clonal line overexpressing APOL1 G1
[7] = Trypanosoma brucei, 20 h, read-out: APOL1 G1 Trypanosome Rescue EC50, Trypanosoma brucei Lister 427 VSG221 with APOL1 G1 recombinant protein, 20 hours, CellTiter-Glo
[8] = Trypanosoma brucei, 20 h, read-out: APOL1 G2 Trypanosome Rescue EC50, Trypanosoma brucei Lister 427 VSG221 with APOL1 G2 recombinant protein, 20 hours, CellTiter-Glo
[9] = Trypanosoma brucei, 20 h, read-out: APOL1 G0 Trypanosome Rescue EC50, Trypanosoma brucei Lister 427 VSG221 with APOL1 G0 recombinant protein, 20 hours, CellTiter-Glo
[10] = Homo sapiens, HEK293, HEK293 overexpressing APOL1 G2
[11] = HEK293 clonal line overexpressing APOL1 G1

SMILES	EC50 [1, 6]	EC50 [2, 7]	EC50 [3, 8]	EC50 [4, 9]	EC50 [5, 10]	EC50 [1, 11]	EC50 ([2]; read-out: APOL1 G1 Trypanosome Rescue EC50, Trypanosoma brucei Lister 427 VSG221 with APOL1 G1 recombinant protein, 20 hours, CellTiter-Glo)	EC50 ([3]; read-out: APOL1 G2 Trypanosome Rescue EC50, Trypanosoma brucei Lister 427 VSG221 with APOL1 G2 recombinant protein, 20 hours, CellTiter-Glo)	EC50 ([4]; read-out: APOL1 G0 Trypanosome Rescue EC50, Trypanosoma brucei Lister 427 VSG221 with APOL1 G0 recombinant protein, 20 hours, CellTiter-Glo)	EC50 ([5]; HEK293 overexpressing APOL1 G2)	AC50 (APOL1 G2)
CC1(O)CN(c2ncc(OCCN3CCC4(CC3)C(=O)Nc3ccc(Cl)cc34)cc2C(F)(F)F)C1 [Compound 405, 5-chloro-1′-(2-{[6-(3-hydroxy-3-methylazetidin-1-yl)-5-(trifluoromethyl)pyridin-3-yl]oxy}ethyl)-1,2-dihydrospiro[indole-3,4′-piperidin]-2-one]	0.0192 µM	0.0216 µM	0.00806 µM	0.02 µM	0.00959 µM	–	–	–	–	–	–
CN1C(=O)C2(CCN(CCOc3ccc(C4(S(C)(=O)=O)CC(O)C4)cc3)CC2)c2cc(C(F)F)ccc21 (single isomer, unassigned) [Compound 279, 5-(difluoromethyl)-1-methyl-1′-(2-{4-[(trans) or (cis)-3-hydroxy-1-methanesulfonylcyclobutyl]phenoxy}ethyl)-1,2-dihydrospiro[indole-3,4′-piperidin]-2-one]	–	–	–	–	–	0.234 µM	0.283 µM	0.0831 µM	0.213 µM	0.06 µM	–
CC(CO)(c1ncc(OCCN2CCC3(CC2)C(=O)Nc2ccc(Cl)cc23)cc1C(F)(F)F)S(C)(=O)=O (single isomer, unassigned) [Compound 402, 5-chloro-1′-[2-({6-[(2S or 2R)-1-hydroxy-2-methanesulfonylpropan-2-yl]-5-(trifluoromethyl)pyridin-3-yl}oxy)ethyl]-1,2-dihydrospiro[indole-3,4′-piperidin]-2-one]	–	0.0427 µM	0.0165 µM	0.0336 µM	–	0.0357 µM	–	–	–	0.0238 µM	–
C[C@]1(O)C[C@@H](c2nc3cc(OCCN4CCC5(CC4)C(=O)Nc4ccc(Cl)cc45)cc(C(F)(F)F)c3[nH]2)C1 [Compound 466, 5-chloro-1′-[2-({2-[(cis)-3-hydroxy-3-methylcyclobutyl]-7-(trifluoromethyl)-1H-1,3-benzodiazol-5-yl}oxy)ethyl]-1,2-dihydrospiro[indole-3,4′-piperidin]-2-one]	0.00871 µM	0.0306 µM	0.0119 µM	0.0194 µM	0.00426 µM	–	–	–	–	–	–
CC(=O)N1CCc2cc(OCCN3CCC4(CC3)C(=O)N(C)c3ccccc34)ccc2C1 [Compound 58, 1′-{2-[(2-acetyl-1,2,3,4-tetrahydroisoquinolin-6-yl)oxy]ethyl}-1-methyl-1,2-dihydrospiro[indole-3,4′-piperidin]-2-one]	2.12 µM	–	–	–	1.31 µM	–	–	–	–	–	< 0.32 µM
CC1(O)CC(N2C(=O)CCc3cc(OCCN4CCC5(CC4)C(=O)Nc4ccc(Cl)cc45)cnc32)C1 (centres unmarked) [Compound 315, 5-chloro-1′-(2-{[8-(3-hydroxy-3-methylcyclobutyl)-7-oxo-5,6,7,8-tetrahydro-1,8-naphthyridin-3-yl]oxy}ethyl)-1,2-dihydrospiro[indole-3,4′-piperidin]-2-one]	0.086 µM	–	–	–	0.0257 µM	–	–	–	–	–	0.33 µM
N#Cc1ccc2c(c1)C1(CCN(CCOc3ccc(C4(C(=O)N5CCC5)COC4)cc3)CC1)C(=O)N2 [Compound 253, 1′-(2-{4-[3-(azetidine-1-carbonyl)oxetan-3-yl]phenoxy}ethyl)-2-oxo-1,2-dihydrospiro[indole-3,4′-piperidine]-5-carbonitrile]	~4.4 µM	–	–	–	0.608 µM	–	–	–	–	–	1.22 µM
[2H]C([2H])([2H])N1C(=O)C2(CCN(CCOc3cnc4c(c3)CCC(=O)N4CC(C)(C)O)CC2)c2cc(Cl)ccc21 [Compound 417, 5-chloro-1′-(2-{[8-(2-hydroxy-2-methylpropyl)-7-oxo-5,6,7,8-tetrahydro-1,8-naphthyridin-3-yl]oxy}ethyl)-1-(^2H3)methyl-1,2-dihydrospiro[indole-3,4′-piperidin]-2-one]	0.104 µM	–	–	–	0.0492 µM	–	–	–	–	–	0.343 µM
CS(=O)(=O)C1(c2ccc(OCCN3CCC4(CC3)C(=O)Nc3ccc(C#N)cc34)cc2)CCOCC1 [Compound 187, 1′-{2-[4-(4-methanesulfonyloxan-4-yl)phenoxy]ethyl}-2-oxo-1,2-dihydrospiro[indole-3,4′-piperidine]-5-carbonitrile]	1.26 µM	–	–	–	0.268 µM	–	–	–	–	–	1.22 µM
